The text below walks through data of publication PMC11313965, “Bioactive Naphthoquinone and Phenazine Analogs from the Endophytic Streptomyces sp. PH9030 as α-Glucosidase Inhibitors” (Molecules, 2024).

Broadly, the IC50 is the concentration at which inhibition is half-maximal. By MIC is commonly meant the lowest concentration that inhibits growth of the organism.

In one data set the test system is lung (A549) cancer cells. The following applies: cited from earlier work.
The subject of data set [1] is breast (MDA MB-231) cancer cells. The following applies: cited from earlier work.
The subject of a further data set is HeLa S3 cells. Also noted: method as in PMID 2324009. The following applies: cited from earlier work.
The subject of another data set is Bacillus subrifis. Also noted: method as in doi:10.1016/0040-4039(93)88010-G. The following applies: cited from earlier work.
Data set [2] has as its system Staphylococcus aureus ATCC 25923. The arrangement: method as in PMID 24389824. The following applies: cited from earlier work.
Data set [3] relates to Staphylococcus epidermidis ATCC 12228. Also noted: method as in PMID 24389824. Particulars: cited from earlier work.
For another data set, the target named is α-glucosidase (Saccharomyces cerevisiae, UniProt P53341). In words: biochemical. Particulars: read-out: IC50, α-glucosidase inhibitory activity.
Data set [4] has as its system Klebsiella pneumoniae ATCC 13883. In words: Antibacterial assay, broth dilution MIC. The data set is classed as cell-based. As for the experimental part:
(§1) The MIC values of 5–12 against Staphylococcus aureus ATCC 29213, MRSA, Klebsiella pneumoniae ATCC 13883 and Pseudomonas aeruginosa ATCC 9027 were determined via a broth dilution assay in 96-well plates, with levofloxacin as a control (Table S7).
(§2) The broth dilution method was used to determine the minimum inhibitory concentrations (MICs). The details are described in the Supplementary Materials. […]
(§3) Compounds 5 – 12 were tested for antibacterial activity against Staphylococcus aureus ATCC 29213, methicillin-resistant Staphylococcus aureus (MRSA), Klebsiella pneumoniae ATCC 13883 and Pseudomonas aeruginosa ATCC 9027. The MICs were determined using broth dilution assay. The bacterial strains were cultured overnight and diluted to […] in Luria-Bertani (LB, Table S1) broth. 5 – 12 were dissolved in DMSO, serially diluted to 10 different concentrations (64, 32, 16, 8, 4, 2, 1, 0.5. 0.25, 0.125 μg/mL) using LB broth on the 96 well plate.
(§4) Levofloxacin (Bide Pharmatech Ltd., Shanghai, China) was dissolved in DMSO, serially diluted to 1 0 concentrations (0.125 –64 μg/mL) using LB broth on each 96-well plate. Then 100 μL LB broth containing compounds 5 – 12 or levofloxacin and 100 μL of bacterial solution were mixed per well. The plates were incubated at 37 °C for 18 h. Finally, 50 μL resazurin (Shanghai Macklin Biochemical Technology Co., Ltd., Shanghai, China) was added into each well to visualize the result. […]
(In general: In broth dilution the organism is exposed to a series of concentrations in liquid medium.)

Data set [5] relates to Pseudomonas aeruginosa ATCC 9027. In words: Antibacterial assay, broth dilution MIC. The data set is classed as cell-based. As for the experimental part:
as §1, §2, §3, §4

For data set [6], the system named is Staphylococcus aureus ATCC 29213. In words: Antibacterial assay, broth dilution MIC. The data set is classed as cell-based. As for the experimental part:
as §1, §2, §3, §4

Data set [7] deals with methicillin-resistant Staphylococcus aureus (MRSA). In words: Antibacterial assay, broth dilution MIC. The format is cell-based. Particulars: 18 h. The protocol:
as §1, §2, §3, §4

Where [8] appears, read: ATCC13883, Klebsiella pneumoniae ATCC 13883, 37 °C, 18 h, read-out: MIC.
The mark [9] stands for this setting: ATCC9027, Pseudomonas aeruginosa ATCC 9027, 37 °C, 18 h, read-out: MIC.
The mark [10] stands for this setting: ATCC29213, Staphylococcus aureus ATCC 29213, 37 °C, 18 h, read-out: MIC.
[11] abbreviates: Staphylococcus aureus, 37 °C, read-out: MIC.

≈ marks a conversion by molar mass, not a printed value. Like-named read-outs stand apart in the source and are kept apart here.

Sequence of α-glucosidase (P53341 whole entry): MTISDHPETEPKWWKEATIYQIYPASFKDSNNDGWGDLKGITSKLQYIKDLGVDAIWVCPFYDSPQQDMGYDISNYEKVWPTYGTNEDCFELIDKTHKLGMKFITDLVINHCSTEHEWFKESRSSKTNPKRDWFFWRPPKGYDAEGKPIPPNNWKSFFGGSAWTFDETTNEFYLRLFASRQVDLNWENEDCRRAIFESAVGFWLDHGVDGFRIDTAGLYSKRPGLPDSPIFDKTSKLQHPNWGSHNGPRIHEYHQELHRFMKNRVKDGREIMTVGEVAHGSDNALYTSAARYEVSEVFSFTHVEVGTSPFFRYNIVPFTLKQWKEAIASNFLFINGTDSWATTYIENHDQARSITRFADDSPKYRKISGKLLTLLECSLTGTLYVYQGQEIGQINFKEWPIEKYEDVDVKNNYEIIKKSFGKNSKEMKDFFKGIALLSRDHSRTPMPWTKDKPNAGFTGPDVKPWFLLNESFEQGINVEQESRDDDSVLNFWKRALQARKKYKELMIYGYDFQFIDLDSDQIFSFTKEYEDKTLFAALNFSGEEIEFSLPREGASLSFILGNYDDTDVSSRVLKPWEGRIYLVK

Turning to “5-Methyl phenazine-1-carboxylic acid [Compound 4]”, the IC50 was 0.4887 ± 0.00252 µM in the data set on lung (A549) cancer cells and 0.4586 ± 0.00248 µM in data set [1].

For `CC1(C)OC2=C(C(=O)c3cc(O)cc(O)c3C2=O)[C@@H]2C=C(CO)CC[C@@H]21` [Compound 1, naphthgeranine B], in the data set with HeLa S3 cells, the “IC50, cytotoxic effect” value is 1.6 µg/mL (≈ 4.49 µM).

Turning to `CC(C)=CCC[C@@]1(C)OC2=C(C(=O)c3c(Br)c(O)cc(O)c3C2=O)[C@@H]2C=C(C)CC[C@@H]21` [Compound 2, marinone], the MIC with Bacillus subrifis was 1 µg/mL (≈ 2.05 µM).

On to `Oc1c(Br)ccc2nc3ccccc3nc12` [Compound 3, 2-Bromo-1-hydroxyphenazine], for which the MIC in data set [2] and in [3] was 1.72 µg/mL (≈ 6.25 µM) throughout.

In the case of `CC1=CC2C3=C(OC(C)(C)C2CC1O)C(=O)c1c(O)cc(O)cc1C3=O` (stereo not shown) [Compound 5, naphthgeranine G], on α-glucosidase, the IC50 was 66.4 ± 6.7 µM. Also, the MIC in data set [4] (setting [8]), in [5] (setting [9]), in data set [6] (setting [10]) and in data set [7] (setting [11]) was greater than 64 µg/mL throughout.

On to `CC1=CC2C3=C(OC(C)(C)C2CC1O)C(=O)c1c(O)cc(O)cc1C3=O` (stereo not shown) [Compound 6, 12-Hydroxy-naphthgeranine A], for which, at α-glucosidase, the half-inhibitory concentration (IC50) is 116 ± 4.4 µM. Moreover, the MIC was greater than 64 µg/mL in [4] (Klebsiella pneumoniae ATCC 13883, 37 °C, 18 h); greater than 64 µg/mL in [5] (Pseudomonas aeruginosa ATCC 9027, 37 °C, 18 h); greater than 64 µg/mL in data set [6] (Staphylococcus aureus ATCC 29213, 37 °C, 18 h); greater than 64 µg/mL in data set [7] (37 °C).

Regarding `CC1=CC2C3=C(OC(C)(C)C2CC1)C(=O)c1c(O)cc(O)cc1C3=O` (stereo not shown) [Compound 7, naphthgeranine A], on α-glucosidase, the IC50 is 185.9 ± 0.2 µM. The minimum inhibitory concentration (MIC) in data set [4] (setting [8]), in data set [5] (setting [9]), in data set [6] (setting [10]) and in data set [7] (setting [11]) was greater than 64 µg/mL in each case.

Turning to `O=C(O)c1cccc2c1Nc1ccccc1N2C(=O)CO` [Compound 8, 5-(2-hydroxyacetyl)-5,10-dihydrophenazine-1-carboxylic acid], the minimal inhibitory concentration (MIC) in [4] (setting [8]), in data set [5] (setting [9]), in data set [6] (setting [10]) and in [7] (setting [11]) was greater than 64 µg/mL in each case.

For `NC(=O)c1cccc2nc3ccccc3nc12` [Compound 9, phenazine-1-carboxamide], on α-glucosidase, the IC50 turned out to be 105 ± 10.5 µM. Moreover, the minimal inhibitory concentration (MIC) is greater than 64 µg/mL in data set [4] (setting [8]), greater than 64 µg/mL in [5] (setting [9]), 64 µg/mL (≈ 287 µM) in data set [6] (setting [10]) and 16 µg/mL (≈ 71.7 µM) in data set [7] (setting [11]).

As to `O=C(O)c1cccc2nc3ccccc3nc12` [Compound 10, phenazine-1-carboxylic acid], the IC50 at α-glucosidase is greater than 800 µM. The MIC in data set [4] (Klebsiella pneumoniae, ATCC13883, 18 h) is greater than 64 µg/mL; in data set [5] (Pseudomonas aeruginosa, ATCC9027, 18 h) it was greater than 64 µg/mL; in [6] (Staphylococcus aureus, ATCC29213, 18 h), 32 µg/mL (≈ 143 µM); in [7] (Staphylococcus aureus), greater than 64 µg/mL.

Take `COC(=O)c1cccc2nc3ccccc3nc12` [Compound 11, 1-carbomethoxyphenazine]: the MIC in [4] (setting [8]) and in [7] (setting [11]) was greater than 64 µg/mL throughout.

Take `c1ccc2nc3ccccc3nc2c1` [Compound 12, phenazin]: the MIC in data set [4] (setting [8]) was greater than 64 µg/mL; in data set [7] (setting [11]), 16 µg/mL (≈ 88.8 µM).

Take `C[C@H]1COc2c(N3CCN(C)CC3)c(F)cc3c(=O)c(C(=O)O)cn1c23` [LEV, levofloxacin, reference compound]: the MIC was 1 µg/mL (≈ 2.77 µM) in [4] (setting [8]), 2 µg/mL (≈ 5.53 µM) in data set [5] (setting [9]), 0.25 µg/mL (≈ 0.692 µM) in data set [6] (setting [10]) and 0.5 µg/mL (≈ 1.38 µM) in data set [7] (setting [11]).
